SMILES strings stand for the structures.

Common to all, as to assay type: cell-based
The subject of one assay is SW1573. Nature of the assay: Combinatorial activity in LUAD cell line SW1573. Conditions: Homo sapiens; SW1573, KRAS G12C; single agent; read-out: (nM) s.a. Here is the method: (§1) Combinatorial activity of PF-07104091 and PF-07220060 was assessed in LUADs as single agents (s.a.) or in combination.
A further assay has as its system HCC44 (RB-). Nature of the assay: Combinatorial activity in LUAD cell line HCC44. Conditions: Homo sapiens, KRAS G12C, single agent, read-out: (nM) s.a. As for the experimental part:
as §1

The next assay deals with H1792. Nature of the assay: Combinatorial activity in LUAD cell line H1792. Conditions: Homo sapiens, NCI-H1792; H1792, KRAS G12C; single agent; read-out: (nM) s.a. As for the experimental part: as §1
The next assay has as its system H23. Nature of the assay: Combinatorial activity in LUAD cell line H23. Conditions: Homo sapiens, NCI-H23; H23, KRAS G12C; single agent; read-out: (nM) s.a. Here is the method: as §1
For a further assay, the system named is H1373. The experiment in a line: Combinatorial activity in LUAD cell line H1373. Conditions: Homo sapiens, NCI-H1373; H1373, KRAS G12C; single agent; read-out: (nM) s.a. Here is the method: as §1

Take `CC(C)n1c(C(C)(C)O)nc2c(F)cc(-c3nc(N[C@@H]4CCOC[C@H]4O)ncc3Cl)cc21` [PF-07220060, 1,5-anhydro-3-({5-chloro-4-[4-fluoro-2-(2-hydroxypropan-2-yl)-1-(propan-2-yl)-1H-benzimidazol-6-yl]pyrimidin-2-yl}amino)-2,3-dideoxy-D-threo-pentitol]: the IC50 with SW1573 is greater than 1000 nM; in the assay on HCC44 (RB-), greater than 1000 nM; in the assay on H1792, 210 nM; in the assay on H23, 285 nM; in the assay with H1373 it was 470 nM.

The record behind these values is patent US20250041277A1, “METHODS AND DOSING REGIMENS COMPRISING A CDK2 INHIBITOR AND A CDK4 INHIBITOR FOR TREATING CANCER” (PFIZER INC., priority 2021, published 2025).
